Laboratory results taken from patent publication US20260258035A1, “FIVE-MEMBERED AND SIX-MEMBERED NITROGEN-CONTAINING COMPOUND, AND INTERMEDIATE, PREPARATION METHOD AND USE THEREOF” (HANGZHOU SYNRX THERAPEUTICS BIOMEDICAL TECHNOLOGY CO., LTD., priority 2022, published 2026).

Assays:
PARG = PARG (Homo sapiens, UniProt Q86W56); experiment: Biochemical assay (PARG, TFMU-ADPr substrate); conditions: PARG, TFMU-ADPr substrate
HCC1806 = experiment: Cell viability assay (CellTiter-Glo); type: cell-based, Human; conditions: Homo sapiens, HCC1806, 168 h, HCC1806, 7 days, CellTiter-Glo; read-out: IC50 (nM) in cell viability assay

Sequence of PARG (Q86W56 whole entry): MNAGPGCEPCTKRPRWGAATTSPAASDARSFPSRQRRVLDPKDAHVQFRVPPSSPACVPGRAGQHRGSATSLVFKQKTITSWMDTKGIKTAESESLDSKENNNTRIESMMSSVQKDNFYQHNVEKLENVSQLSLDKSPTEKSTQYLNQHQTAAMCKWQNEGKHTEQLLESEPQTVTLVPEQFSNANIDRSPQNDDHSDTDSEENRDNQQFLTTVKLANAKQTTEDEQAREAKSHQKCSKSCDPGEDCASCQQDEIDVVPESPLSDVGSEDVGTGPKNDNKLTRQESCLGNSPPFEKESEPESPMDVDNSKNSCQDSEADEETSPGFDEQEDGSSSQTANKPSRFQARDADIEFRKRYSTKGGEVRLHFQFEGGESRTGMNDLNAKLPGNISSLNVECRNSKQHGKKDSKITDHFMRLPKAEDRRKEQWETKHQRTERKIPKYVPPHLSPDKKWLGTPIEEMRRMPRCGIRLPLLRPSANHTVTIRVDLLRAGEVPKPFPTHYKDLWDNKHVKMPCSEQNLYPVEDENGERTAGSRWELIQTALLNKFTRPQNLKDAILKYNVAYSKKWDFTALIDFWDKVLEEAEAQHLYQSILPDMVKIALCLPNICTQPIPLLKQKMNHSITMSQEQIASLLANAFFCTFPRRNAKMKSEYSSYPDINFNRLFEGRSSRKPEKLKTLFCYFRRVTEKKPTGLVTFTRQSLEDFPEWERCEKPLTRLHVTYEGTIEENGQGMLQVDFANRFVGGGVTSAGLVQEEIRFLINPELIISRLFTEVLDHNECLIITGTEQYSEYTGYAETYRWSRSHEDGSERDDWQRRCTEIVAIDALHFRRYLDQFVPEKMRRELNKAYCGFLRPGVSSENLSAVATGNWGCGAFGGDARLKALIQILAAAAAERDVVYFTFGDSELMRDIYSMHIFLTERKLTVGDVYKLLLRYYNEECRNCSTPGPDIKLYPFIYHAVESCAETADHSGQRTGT

| IC50 (PARG) | IC50 (HCC1806) | SMILES |
| --- | --- | --- |
| 0.34 nM | 11.5 nM | COC1(C(=O)N2CCN(c3cc(S(=O)(=O)NC4(C)CC4)cn4c(-c5nnc(C(F)(F)F)s5)nc(C#N)c34)CC2)CC1 [Example 199, 1-cyano-8-(4-(1-methoxycyclopropane-1-carbonyl)piperazin-1-yl)-N-(1-methylcyclopropyl)-3-(5-(trifluoromethyl)-1,3,4-thiadiazol-2-yl)imidazo[1,5-a]pyridine-6-sulfonamide] |
| 0.63 nM | 54.6 nM | COC1(C(=O)N2CCN(c3cc(S(=O)(=O)NC4(C)CC4)cn4c(-c5nnc(C(F)F)s5)ncc34)C[C@H]2CF)CC1 [Example 200, (S)-3-(5-(difluoromethyl)-1,3,4-thiadiazol-2-yl)-8-(3-(fluoromethyl)-4-(1-methoxycyclopropane-1-carbonyl)piperazin-1-yl)-N-(1-methylcyclopropyl)imidazo[1,5-a]pyridine-6-sulfonamide] |
| 0.14 nM | 9.06 nM | COC1(C(=O)N2CCN(c3cc(S(=O)(=O)NC4(C)CC4)cn4c(-c5nnc(C(F)F)s5)ncc34)C[C@H]2CO)CC1 [Example 201, (S)-3-(5-(difluoromethyl)-1,3,4-thiadiazol-2-yl)-8-(3-(hydroxymethyl)-4-(1-methoxycyclopropane-1-carbonyl)piperazin-1-yl)-N-(1-methylcyclopropyl)imidazo[1,5-a]pyridine-6-sulfonamide] |
| 1.16 nM | 133 nM | CC(C)OC1(C(=O)N2CCN(c3cc(S(=O)(=O)NC4(C)CC4)cn4c(-c5nnc(C(F)(F)F)s5)ncc34)CC2)CC1 [Example 202, 8-(4-(1-isopropoxycyclopropane-1-carbonyl)piperazin-1-yl)-N-(1-methylcyclopropyl)-3-(5-(trifluoromethyl)-1,3,4-thiadiazol-2-yl)imidazo[1,5-a]pyridine-6-sulfonamide] |
| 36.3 nM | 360 nM | C[C@@H]1CN(c2cc(S(=O)(=O)NC3(C#N)CC3)cn3c(-c4nnc(C(F)F)s4)cnc23)CCN1C(=O)C1(C)CC1 [Example 204, (R)-N-(1-cyanocyclopropyl)-3-(5-(difluoromethyl)-1,3,4-thiadiazol-2-yl)-8-(3-methyl-4-(1-methylcyclopropane-1-carbonyl)piperazin-1-yl)imidazo[1,2-a]pyridine-6-sulfonamide] |
| 22.9 nM | 699 nM | CC(C)C(=O)N1CCN(c2cc(S(=O)(=O)NC3(C#N)CC3)cn3c(-c4nnc(C(F)(F)F)s4)ncc23)C[C@H]1C [Example 205, (R)-N-(1-cyanocyclopropyl)-8-(4-isobutyryl-3-methylpiperazin-1-yl)-3-(5-(trifluoromethyl)-1,3,4-thiadiazol-2-yl)imidazo[1,5-a]pyridine-6-sulfonamide] |
| 21.9 nM | 1180 nM | CC(C)C(=O)N1CCN(c2cc(S(=O)(=O)NC3(C#N)CC3)cn3c(-c4nnc(C(F)F)s4)cnc23)C[C@H]1C [Example 206, (R)-N-(1-cyanocyclopropyl)-3-(5-(difluoromethyl)-1,3,4-thiadiazol-2-yl)-8-(4-isobutyryl-3-methylpiperazin-1-yl)imidazo[1,2-a]pyridine-6-sulfonamide] |
| 39.8 nM | 1200 nM | CC(C)C(=O)N1CCN(c2cc(S(=O)(=O)NC3(C#N)CC3)cn3c(-c4nnc(C(F)(F)F)s4)cnc23)CC1 [Example 207, N-(1-cyanocyclopropyl)-8-(4-isobutyrylpiperazin-1-yl)-3-(5-(trifluoromethyl)-1,3,4-thiadiazol-2-yl)imidazo[1,2-a]pyridine-6-sulfonamide] |
| 110 nM | 3350 nM | CC(C)C(=O)N1CCN(c2cc(S(=O)(=O)NC3CC3)cn3c(-c4nnc(C(F)(F)F)s4)cnc23)CC1 [Example 208, N-cyclopropyl-8-(4-isobutyrylpiperazin-1-yl)-3-(5-(trifluoromethyl)-1,3,4-thiadiazol-2-yl)imidazo[1,2-a]pyridine-6-sulfonamide] |
| 60.3 nM | 765 nM | N#CC1(NS(=O)(=O)c2cc(N3CCC4(CC3)COC4)c3cnc(-c4nnc(C(F)(F)F)s4)n3c2)CC1 [Example 209, N-(1-cyanocyclopropyl)-8-(2-oxa-7-azaspiro[3.5]nonan-7-yl)-3-(5-(trifluoromethyl)-1,3,4-thiadiazol-2-yl)imidazo[1,5-a]pyridine-6-sulfonamide] |
| 83.2 nM | 929 nM | CC(C)C(=O)N1CCN(c2cc(S(=O)(=O)NC3CC3)cn3c(-c4nnc(C(F)(F)F)s4)ncc23)CC1 [Example 210, N-cyclopropyl-8-(4-isobutyrylpiperazin-1-yl)-3-(5-(trifluoromethyl)-1,3,4-thiadiazol-2-yl)imidazo[1,5-a]pyridine-6-sulfonamide] |
| 209 nM | 222 nM | COc1ccc(C(=O)/C=C/C(=O)N2CCN(c3cc(S(=O)(=O)NC4(C#N)CC4)cn4c(-c5nnc(C(F)(F)F)s5)ncc34)CC2)cc1 [Example 211, (E)-N-(1-cyanocyclopropyl)-8-(4-(4-(4-methoxyphenyl)-4-oxobut-2-enoyl)piperazin-1-yl)-3-(5-(trifluoromethyl)-1,3,4-thiadiazol-2-yl)imidazo[1,5-a]pyridine-6-sulfonamide] |
| 110 nM | 3000 nM | CN(C)C(=O)C1CCN(c2cc(S(=O)(=O)NC3(C#N)CC3)cn3c(-c4nnc(C(F)F)s4)ncc23)CC1 [Example 212, 1-(6-(N-(1-cyanocyclopropyl)sulfamoyl)-3-(5-(difluoromethyl)-1,3,4-thiadiazol-2-yl)imidazo[1,5-a]pyridin-8-yl)-N,N-dimethylpiperidine-4-carboxamide] |
| 31.6 nM | 1200 nM | N#CC1(NS(=O)(=O)c2cc(N3CCC(n4cncn4)CC3)c3cnc(-c4nnc(C(F)(F)F)s4)n3c2)CC1 [Example 213, 8-(4-(1H-1,2,4-triazol-1-yl)piperidin-1-yl)-N-(1-cyanocyclopropyl)-3-(5-(trifluoromethyl)-1,3,4-thiadiazol-2-yl)imidazo[1,5-a]pyridine-6-sulfonamide] |
| 174 nM | 4000 nM | CN(C)C(=O)C1CCN(c2cc(S(=O)(=O)NC3(C#N)CC3)cn3c(-c4nnc(C(F)(F)F)s4)ncc23)CC1 [Example 214, 1-(6-(N-(1-cyanocyclopropyl)sulfamoyl)-3-(5-(trifluoromethyl)-1,3,4-thiadiazol-2-yl)imidazo[1,5-a]pyridin-8-yl)-N,N-dimethylpiperidine-4-carboxamide] |
| 69.2 nM | 1500 nM | CC(C)S(=O)(=O)N1CCN(c2cc(S(=O)(=O)NC3CC3)cn3c(-c4nnc(C(F)(F)F)s4)ncc23)CC1 [Example 215, N-cyclopropyl-8-(4-(isopropylsulfonyl)piperazin-1-yl)-3-(5-(trifluoromethyl)-1,3,4-thiadiazol-2-yl)imidazo[1,5-a]pyridine-6-sulfonamide] |
| 31.6 nM | 2340 nM | CC(=O)N1CCN(c2cc(S(=O)(=O)NC3(C#N)CC3)cn3c(-c4nnc(C(F)(F)F)s4)ncc23)C[C@H]1C [Example 216, (R)-8-(4-acetyl-3-methylpiperazin-1-yl)-N-(1-cyanocyclopropyl)-3-(5-(trifluoromethyl)-1,3,4-thiadiazol-2-yl)imidazo[1,5-a]pyridine-6-sulfonamide] |
| 66.1 nM | 3070 nM | O=C(C1COC1)N1CCN(c2cc(S(=O)(=O)NC3CC3)cn3c(-c4nnc(C(F)(F)F)s4)ncc23)CC1 [Example 217, N-cyclopropyl-8-(4-(oxetane-3-carbonyl)piperazin-1-yl)-3-(5-(trifluoromethyl)-1,3,4-thiadiazol-2-yl)imidazo[1,5-a]pyridine-6-sulfonamide] |
| 39.8 nM | 1050 nM | N#CC1(NS(=O)(=O)c2cc(N3CCC(n4ccnn4)CC3)c3cnc(-c4nnc(C(F)(F)F)s4)n3c2)CC1 [Example 218, 8-(4-(1H-1,2,3-triazol-1-yl)piperidin-1-yl)-N-(1-cyanocyclopropyl)-3-(5-(trifluoromethyl)-1,3,4-thiadiazol-2-yl)imidazo[1,5-a]pyridine-6-sulfonamide] |
| 100 nM | 4610 nM | O=C(C1CCN(c2cc(S(=O)(=O)NC3CC3)cn3c(-c4nnc(C(F)(F)F)s4)ncc23)CC1)N1CCC1 [Example 219, 8-(4-(azetidine-1-carbonyl)piperidin-1-yl)-N-cyclopropyl-3-(5-(trifluoromethyl)-1,3,4-thiadiazol-2-yl)imidazo[1,5-a]pyridine-6-sulfonamide] |
| 57.5 nM | 664 nM | N#CC1(NS(=O)(=O)c2cc(N3CCC4=C(COC4=O)C3)c3cnc(-c4nnc(C(F)(F)F)s4)n3c2)CC1 [Example 220, N-(1-cyanocyclopropyl)-8-(1-oxo-1,4,6,7-tetrahydrofuro[3,4-c]pyridin-5(3H)-yl)-3-(5-(trifluoromethyl)-1,3,4-thiadiazol-2-yl)imidazo[1,5-a]pyridine-6-sulfonamide] |
| 43.7 nM | 150 nM | N#CC1(NS(=O)(=O)c2cc(N3CCC(c4nnco4)CC3)c3cnc(-c4nnc(C(F)(F)F)s4)n3c2)CC1 [Example 221, 8-(4-(1,3,4-oxadiazol-2-yl)piperidin-1-yl)-N-(1-cyanocyclopropyl)-3-(5-(trifluoromethyl)-1,3,4-thiadiazol-2-yl)imidazo[1,5-a]pyridine-6-sulfonamide] |
| 2.09 nM | 1670 nM | CC(C)C(=O)N1CCN(c2cc(S(=O)(=O)NC3(C#N)CC3)cn3c(-c4nnc(C(F)F)s4)ncc23)C[C@H]1CO [Example 222, (S)-N-(1-cyanocyclopropyl)-3-(5-(difluoromethyl)-1,3,4-thiadiazol-2-yl)-8-(3-(hydroxymethyl)-4-isobutyrylpiperazin-1-yl)imidazo[1,5-a]pyridine-6-sulfonamide] |
| 1.45 nM | 250 nM | COC[C@@H]1CN(c2cc(S(=O)(=O)NC3(C#N)CC3)cn3c(-c4nnc(C(F)F)s4)ncc23)CCN1C(=O)C(C)C [Example 223, (S)-N-(1-cyanocyclopropyl)-3-(5-(difluoromethyl)-1,3,4-thiadiazol-2-yl)-8-(4-isobutyryl-3-(methoxymethyl)piperazin-1-yl)imidazo[1,5-a]pyridine-6-sulfonamide] |
